Measured values taken from patent US12642786B2, “Methods, compositions and kits for treating multiple sclerosis and other disorders” (The Johns Hopkins University, priority 2018, dated 2026).
“Also recorded” adds a separate entry of the source.

Experiments:
[1] = test system: murine peritoneal macrophages (mPMs); experiment: mPM arginase-1 expression by Western blot; format: cell-based; conditions: IL-4 20 ng/mL
Method: Cells were lysed by sonication in RIPA buffer supplemented with protease inhibitors, and protein concentration was measured by Bradford assay. Lysates were mixed with SDS sample buffer, boiled, and resolved by SDS/PAGE. Bands were transferred to PVDF Immobilon P membranes (Millipore) using a wet transfer, blocked in TBS-T containing 5% milk, and probed overnight at 4° C. with mouse monoclonal antibody against arginase-1 (Santa Cruz Biotechnology, catalog #sc-271430, 1:500). HRP-conjugated anti-mouse secondary antibody was from Jackson ImmunoResearch. Western blots were visualized using the SuperSignal West ECL system (Thermo Scientific), followed by film exposure. Blots were then stripped using Restore Western blot stripping buffer (Thermo Scientific, catalog #21059), blocked again as earlier, and probed overnight at 4° C. with HRP-conjugated anti-actin antibody before visualization as earlier. Quantitation was performed using ImageJ software.
Mice aged 8-12 wk were injected intraperitoneally with 2 mL each of 3% sterile thioglycolate (BD Biosciences, catalog #211716) medium. […] Cells were then counted, equal numbers were plated into each well of appropriate cell culture dishes, and the cells were then incubated at 37° C. for 2-4 h to allow macrophage adhesion. […]

[2] = test system: murine peritoneal macrophages (mPMs); experiment: mPM cytokine secretion by ELISA; format: cell-based; conditions: LPS 100 ng/mL, low-dose bryo-1
Method: After overnight treatment of BMDCs or mPMs with LPS 100 ng/mL±bryo-1, culture supernatants were collected and cytokine production was assayed using ELISA kits for IL-12 p70 (catalog #88-7121-22), IL-6 (catalog #88-7064-22), and IL-10 (catalog #88-7105-22) purchased from eBioscience, according to manufacturer's instructions. Plates were read at 450 nm on a tabletop plate reader.
Mice aged 8-12 wk were injected intraperitoneally with 2 mL each of 3% sterile thioglycolate (BD Biosciences, catalog #211716) medium. The mice were killed 3-5 d later, and cells were harvested by peritoneal lavage with ice-cold RPMI medium containing 2% FBS (FBS) and 1 unit/mL heparin. The cells were pelleted by centrifugation at 500×g for 8 min, washed in ice-cold RPMI containing 2% FBS alone, pelleted by centrifugation, and resuspended in ice-cold Spinner-modification minimum essential medium (SMEM; Sigma, M8167) supplemented with 10% FBS, 2 mM glutamine, and penicillin-streptomycin (SMEM-complete). Cells were then counted, equal numbers were plated into each well of appropriate cell culture dishes, and the cells were then incubated at 37° C. for 2-4 h to allow macrophage adhesion. Contaminating nonadherent cells were then removed by washing culture dishes five times with ice-cold sterile PBS. Fresh SMEM-complete was then added to the plates, which were incubated overnight at 37° C. […]

[3] = test system: naive CD4+ lymphocytes; experiment: Naive CD4+ T cells stimulated with α-CD3/CD28 antibodies, flow cytometry; format: cell-based, C57BL/6J mice
Method: (§1) For surface marker and intracellular cytokine staining of T cells, the cells were first restimulated with a cell stimulation mixture with protein transport inhibitors (eBioscience, catalog #00-4975-03) for 4 h in cRPMI at 37° C. They then underwent live/dead and surface marker staining as earlier. For intracellular cytokine staining, cells were permeabilized and fixed using either IC Fixation buffer for cytokine analysis (eBioscience, 00-8222-49) or FoxP3 fixation/permeabilization buffer for transcription factor analysis (eBioscience, 00-5521-00) after manufacturer recommended protocol and incubated with specific conjugated antibodies for the specified proteins in permeabilization buffer for 1 h.
Spleens were harvested from 6-10-wk-old female C57BL/6J mice, and single-cell suspensions were generated in FACS buffer by disrupting spleens with the plunger of a syringe over a 70-μm nylon cell strainer (BD Falcon), pelleting cells by centrifugation (500×g for 8 min), and resuspending in fresh FACS buffer. Naive CD4^+ cells were then isolated by negative selection using an isolation kit from STEMCELL Technologies (catalog #19765).
Tissue culture plates were coated with α-CD3 antibody (BD Biosciences) by incubating them with 0.25-1.0 m/mL of antibody diluted in sterile PBS overnight at 4° C. or for 2-4 h at 37° C. The antibody solution was then removed, plates were washed once with sterile PBS, and naive CD4^+ T cells were seeded along with 0.25-1.0 m/mL α-CD28 antibody (BD Biosciences) in the presence or absence of the indicated doses of bryo-1. The cells were cultured for 3 d and then analyzed by flow cytometry.

[4] = test system: CD4+, Th1 and Th17 lymphocytes in EAE mice; experiment: Flow cytometry of lymph node, spleen, brain and spinal cord in EAE mice, prevention paradigm; format: in vivo, C57BL/6J mice
Method: Mice were killed with pentobarbital and perfused via cardiac puncture with ice-cold HBSS without cations. Brain, spinal cord (collected using hydrostatic pressure), spleen, and lymph node tissue were isolated after perfusion and were mechanically dissociated by passing through 100-μm cell strainers. For CNS tissue, after dissociation, infiltrating mononuclear cells were separated from myelin debris using a 37/70% percoll gradient. After dissociation, spleens were incubated in ACK lysis buffer to remove red blood cell contamination. Cells were counted using a MACSQuant flow cytometer (Miltenyi Biotec).
as §1
Cells were analyzed by flow cytometry using a MACSQuant flow cytometer (Miltenyi Biotec). Flow data analysis was performed in FlowJo (FlowJo) or FlowLogic (Inivai).
EAE was elicited by immunizing 8-12-wk-old C57BL/6J mice with MOG35-55. Neurologic symptoms of EAE were most evident 10-14 d after MOG immunization, peaking at about 16 d and then plateauing with slight diminution until 21 d. Mice were treated with bryo-1 (30 μg/kg) or vehicle by i.p. injection 3 d per week.

[5] = 200 nM, cells stimulated with 0.25 μg/mL of α-CD3 and α-CD28 antibodies, 3 d
[6] = brain and spinal cord, peak disease (day 14)
[7] = lymph nodes, 8 d after immunization, prevention paradigm
[8] = lymph nodes, day 8, prevention paradigm
[9] = peak disease (day 14), prophylactic treatment
[10] = spleen, day 8, prevention paradigm

`CCC/C=C/C=C/C(=O)OC1/C(=C/C(=O)OC)CC2CC(C(C)O)OC(=O)CC(O)CC3CC(OC(C)=O)C(C)(C)C(O)(CC4C/C(=C/C(=O)OC)CC(/C=C/C(C)(C)C1(O)O2)O4)O3` (stereo not shown) [bryo-1, Bryostatin-1] was tested, and the “IL-4-induced expression of arginase-1” value [1] was “augments expression; also recorded: potentiated”, the “LPS-induced secretion of IL-6” value [2] was “inhibited” and the “LPS-induced secretion of IL-12” value [2] was “inhibited”. The “expression of regulatory T-cell marker FoxP3” value [3, 5] was “increased expression”, the “up-regulation of CD44” value [3, 5] was “inhibited up-regulation” and the “up-regulation of IFNγ” value [3, 5] was “inhibited up-regulation”. The “effects on CD44, IFNγ and FoxP3 with stronger T-cell stimulation” value ([3]; of α-CD3/CD28) was “these effects were lost”, the “percentage of infiltrating CD4+ lymphocytes expressing IL17” value [4, 6] was “unchanged” and the “proportion of infiltrating CD4+ lymphocytes producing IFNγ” value [4, 6] was “decreased proportion”. The “numbers of Th1 (CD4+; IFNγ+) lymphocytes in lymph nodes” value [4, 7] was “significantly decreased numbers”, the “numbers of Th17 (CD4+; IL17+) lymphocytes in lymph nodes” value [4, 7] was “significantly decreased numbers” and the “numbers of total CD4+ (CD3+; CD4+) lymphocytes in lymph nodes” value [4, 7] was “significantly decreased numbers”. The “proportion of Th1 cells among CD4+ lymphocytes” value [4, 8] was “significantly lower proportion”, the “proportion of Th17 cells among CD4+ lymphocytes” value [4, 8] was “insignificant decrease” and the “infiltration of CD4+ lymphocytes into the brain” value [4, 9] was “diminished infiltration”. For the same compound, the “infiltration of CD4+ lymphocytes into the spinal cord” value [4, 9] was “diminished infiltration”, the “numbers of Th1 lymphocytes in spleen” value [4, 10] was “significantly decreased numbers” and the “numbers of Th17 cells in spleen” value [4, 10] was “trend toward decreased”. The “numbers of total CD4+ lymphocytes in spleen” value [4, 10] was “significantly decreased numbers”.
